Consider one compound from patent publication US20090318449A1, “THERAPEUTIC LACTAMS” (ALLERGAN, INC., priority 2008, published 2009).

This experiment relates to lashes and adjacent hairs of glaucoma patients. Briefly: Eyelash/hair growth observed in glaucoma patients treated in one eye. The format is in vivo, humans. Conditions: glaucoma patients treated in only one eye. From the text: In the course of treating patients having glaucoma, treatment may only be appropriate in one eye. […] The lash appearance on the lids of the treated eyes would have appeared quite attractive if it represented a bilateral phenomenon. As a result of its asymmetric nature, the long lashes on one side could be construed as disturbing from a cosmetic standpoint. A systemic examination was preformed as a result of the asymmetric phenomenon. It soon became apparent that this altered appearance was not an isolated finding. […] Definite differences could be identified to varying degrees in the lashes and adjacent hairs of all patients who were taking the drug on a unilateral basis for longer than 6 months.
The changes in the lashes were apparent on gross inspection in several patients once attention was focused on the issue. In those with light colored hair and lashes, the differences were only seen easily with the aid of the high magnification and lighting capabilities of the slit lamp biomicroscope. In the course of glaucoma follow-up examination, attention is generally immediately focused on the eye itself. As a result of the high power magnification needed only one eye is seen at a time and the eye is seen at a high enough power that the lashes are not in focus. […]

For the compound `CCNC(=O)CCC/C=C\C[C@@H]1[C@@H](/C=C/[C@@H](O)CCc2ccccc2)[C@H](O)C[C@@H]1O` [bimatoprost], the “lash appearance, treated eye versus non-treated eye” value was “longer, thicker, and fuller”.
